Source: US20170174649A1, “ESTERS OF ACETALS, COMPOSITION THEREOF, METHODS OF PREPARATION AND MAIN USES THEREOF IN COSMETIC AREA” (GLYCEROSOLUTION QUIMICA LTDA, priority 2015, published 2017)

Tests used:
[1] = Solubility of sunscreens using cocoil glyceryl acetal as solubilizing agent; type: physicochemical; settings: solvent cocoil glyceryl acetal
[2] = Tests of oral toxicity (GHS classification); type: in vivo; settings: rules of GHS
[3] = Tests of ocular irritation (OECD and GHS); type: in vivo; settings: rules of OECD and GHS
From the text: In the tests of ocular irritation, the product has been classified as non-irritating according to the rules of OECD and GHS.

[4] = Tests of skin irritation (OECD and GHS); type: in vivo
From the text: Two new batches of cocoil glyceryl acetal were sent to confirm the tests of dermal irritation.

COc1ccc(C(=O)CC(=O)c2ccc(C(C)(C)C)cc2)cc1 [4-(1,1-dimethylethyl)-4-methoxydibenzoylmethane]
Solubility at 25° C. [1]: 14.0 grams/100 grams of cocoil glyceryl acetal

CCCCCCOC(=O)c1ccccc1C(=O)c1ccc(N(CC)CC)cc1O [Diethylamino hydroxybenzoi hexyl benzoate]
Solubility at 25° C. [1]: 18.0 grams/100 grams of cocoil glyceryl acetal

CCCCC(CC)COC(=O)c1ccc(Nc2nc(Nc3ccc(C(=O)OCC(CC)CCCC)cc3)nc(Nc3ccc(C(=O)OCC(CC)CCCC)cc3)n2)cc1 (stereo not shown) [Ethylhexyl Triazone]
Solubility at 25° C. [1]: 16.0 grams/100 grams of cocoil glyceryl acetal

cocoil glyceryl acetal
Oral toxicity classification [2]: class 5 (non-toxic)
Ocular irritation classification [3]: non-irritating
Skin irritation finding ([4]; one of the tests): mild dermal irritation
Skin irritation classification ([4]; two tests, rules of OECD and GHS): non-irritating
